Test results from patent publication US8840849B2, “Permeation device and method for reducing aqueous boundary layer thicknesses” (Pion, Inc., priority 2004, dated 2014).
Structures can show the parent of a compound that is named as a salt.

Key:
in vitro = assay: in vitro
Source text: Additionally, those molecular entities that are footnoted as “2” had permeability measurements obtained in an aqueous buffer and a buffer having 20 percent acetonitrile added thereto. For this example, a PAMPA Evolution instrument from pION INC of Woburn, Mass.
Solution pH was adjusted using a universal buffer as well as a buffer solution having a pH of 7.4 and containing a chemical scavenger to simulate serum proteins, which can be obtained from pION INC of Woburn, Mass. […] Donor and acceptor microtitre plates with 96 compartments were also employed for this example. The acceptor plate was obtained from Millipore Corporation of Billerica, Mass.
This approach for determining Pe is often referred to as the pKa^FLUX method.
As indicated above, the acceptor solutions contained a surfactant in order to mimic some of the function of serum proteins.
When not being stirred, a PAMPA sandwich was formed and permitted to incubate in the GUT-BOX at about 23° C. for up to several hours in an atmosphere saturated in humidity and scrubbed free of oxygen and carbon dioxide. Preferably, incubation was performed for up to about four hours. […] For example, the stirring members in FIG. 10 can be magnetized flippers that are controlled by a magnetic stirrer in the GUT-BOX, which causes the members to rotate about a horizontal axis. A speed dial for the magnetic stirrer, as described above, can be calibrated in units of thickness of the expected boundary layer rather than as standard units such as rpm.
After a permeation time in the GUT-BOX was reached, the PAMPA sandwich could then be separated and the donor and acceptor compartments studied for the amount of entity present. The amount of entity present was determined from UV measurements compared to UV spectra obtained from reference standards. The reference UV spectra were performed in a range from about 230 to 500 nanometers (nm). Moreover, mass balance was used to determine the amount of material retained by the porous support and DOUBLE-SINK GIT-0 lipid as generally described by Avdeef et al., Eur. J. Pharm.
The determination of Pe also accounted for the porous support area and its porosity. In particular, the support area of 0.3 centimeters squared (cm^2) was multiplied by the apparent porosity (εa) of the support, which was about 0.76, such as generally described by Nielsen et al., Eur. J. Pharm.
The majority of the data in Tables 1 through 5 is from unstirred assays and those stirred at about 186 rpm. […] The maximum speed used for these entities was 622 rpm.
Again, several entities were studied in a buffer comprising about 20 percent acetonitrile. These entities are footnoted as “1” in Tables 1 through 5. […] Tables 1 through 5 are provided below with Table 1 at 0 rpm, Table 2 stirred at 49 rpm, Table 3 stirred at 118 rpm, Table 4 stirred at 186 rpm and Table 5 stirred at 622 rpm. Tables 1 through 5 also include the standard deviation (SD) of determined Pu values.
The boundary layer thickness (h) in Tables 1 through 5 can be determined by […] of diffusion, which is
Pu values derived at various stirring speeds by using the pKa^FLUX method, as described above, were also subjected to a hydrodynamic analysis using the equation Pu=Kν^α in a logarithmic form. For example, FIG. 13 provides a plot of the logarithm of Pu versus the logarithm of ν comprising 36 measurements based on 14 molecular entities studied at several different stirring speeds. The intercept in such a plot is the logarithm of the stirring efficiency factor (K) with the slope being the hydrodynamic factor (α).

Caco-2 type cells = conditions: testosterone data at 22° C., Adson et al.; dashed line FIG. 15; cited from earlier work
[1] = testosterone at 37° C., Karlsson et al.; dotted curve FIG. 15; cited from earlier work
[2] = PAMPA, Pu (boundary layer permeability)
[3] = 0 rpm (unstirred), aqueous buffer, pKa^FLUX method
[4] = PAMPA, Pu (boundary layer permeability), 0 rpm (unstirred), aqueous buffer, pKa^FLUX method

| Structure (SMILES) | Papp at 50 µM (in vitro; [2]) [×10⁻⁶ cm/s] | other results |
| --- | --- | --- |
| CCC(C)n1ncn(-c2ccc(N3CCN(c4ccc(OCC5COC(Cn6cncn6)(c6ccc(Cl)cc6Cl)O5)cc4)CC3)cc2)c1=O (stereo not shown) [Itraconazole, itraconazole] | 1360 | Pu (boundary layer permeability) (in vitro; PAMPA, 50 µM): 2210 |
| COC(=O)C1=C(C)NC(C)=C(C(=O)OCCN(C)Cc2ccccc2)C1c1cccc([N+](=O)[O-])c1 (stereo not shown) [Nicardipine, nicardipine] | 1250 |  |
| Cc1c(OCC(F)(F)F)ccnc1C[S+]([O-])c1nc2ccccc2[nH]1 (stereo not shown) [Lansoprazole, lansoprazole] | 35 |  |
| CCn1cc(C(=O)O)c(=O)c2ccc(C)nc21 [Nalidixic acid, nalidixic acid] | 44 |  |
| CCN1CCN(c2cc3c(cc2F)c(=O)c(C(=O)O)cn3C2CC2)CC1C (stereo not shown) [4′N-Et-3′-Me-ciprofloxacin] |  | Pu (boundary layer permeability) (in vitro; [3]): 53 |
| CCCN1CCN(c2cc3c(cc2F)c(=O)c(C(=O)O)cn3C2CC2)CC1C (stereo not shown) [4′N-Pr-3′-Me-ciprofloxacin] |  | Pu (boundary layer permeability) (in vitro; [3]): 40 |
| CC(=O)CC(c1ccccc1)c1c(O)c2ccccc2oc1=O (stereo not shown) [Warfarin, warfarin] |  | Papp at 50 µM (in vitro; [4]): 70 ×10⁻⁶ cm/s |
| COc1ccc(CCN2CCC(Nc3nc4ccccc4n3Cc3ccc(F)cc3)CC2)cc1 [Astemizole, astemizole] | 746 |  |
| O=C(O)Cc1cccc(O)c1 [3-hydroxyphenylacetic acid] | 50 |  |
| Clc1ccc(COC(Cn2ccnc2)c2ccc(Cl)cc2Cl)c(Cl)c1 (stereo not shown) [Miconazole, miconazole-nitrate] | 1690 | Pu (boundary layer permeability) (in vitro; PAMPA, 50 µM): 1520 |
| O=C(O)c1ccccc1O [Salicylic acid, salicylic acid] | 37 |  |
| O=C(O)c1ccc2ccccc2c1 [2-naphthoic acid] | 595 |  |
| CCCC(=O)Nc1ccc(OCC(O)CNC(C)C)c(C(C)=O)c1 (stereo not shown) [Acebutolol, acebutolol] | 63 |  |
| CN(C)C/C=C(/c1ccc(Br)cc1)c1cccnc1 [Zimelidine, zimelidine] | 1670 |  |
| CCOC(=O)C1=C(CSCCN)NC(C)=C(C(=O)OC)C1c1cccc([N+](=O)[O-])c1 (stereo not shown) [Tiamdipine, tiamdipine] |  | Pu (boundary layer permeability) (in vitro; PAMPA): 951 |
| Cc1nccn1CC1CCc2c(c3ccccc3n2C)C1=O (stereo not shown) [Ondansetron, ondansetron] | 59 | Pu (boundary layer permeability) (in vitro; PAMPA): 6949 |
| CC(C)(C)c1ccc(C(O)CCCN2CCC(C(O)(c3ccccc3)c3ccccc3)CC2)cc1 (stereo not shown) [Terfenadine, terfenadine] | 2440 |  |
| CC(C)NCC(O)COc1cccc2ccccc12 (stereo not shown) [Propranolol, propranolol-HCl] |  | Papp at 50 µM (in vitro; [4]): 41 ×10⁻⁶ cm/s; Papp at 50 µM (in vitro; PAMPA, Pu (boundary layer permeability), stirred at 49 rpm, aqueous buffer): 369 ×10⁻⁶ cm/s; Papp at 50 µM (in vitro; PAMPA, Pu (boundary layer permeability), stirred at 118 rpm, aqueous buffer): 601 ×10⁻⁶ cm/s; Papp at 50 µM (in vitro; PAMPA, Pu (boundary layer permeability), stirred at 186 rpm, aqueous buffer): 951 ×10⁻⁶ cm/s; Papp at 50 µM (in vitro; PAMPA, Pu (boundary layer permeability), stirred at 622 rpm, aqueous buffer): 3110 ×10⁻⁶ cm/s |
| CNCCC=C1c2ccccc2CCc2ccccc21 [Nortriptyline, nortriptyline-HCl] | 60 |  |
| CNCCCC1c2ccccc2C=Cc2ccccc21 [Protriptyline, protriptyline-HCl] | 2150 |  |
| CCOC(=O)C1=C(COCCN)NC(C)=C(C(=O)OC)C1c1ccccc1Cl (stereo not shown) [Amlodipine, amlodipine-maleate] | 1380 |  |
| O=C1C[C@@H](c2ccc(O)cc2)Oc2cc(O)cc(O)c21 [Naringenin, naringenin] | 39 |  |
| O=C1NC(=O)C(c2ccccc2)(c2ccccc2)N1 [Phenytoin, phenytoin-Na] | 26 |  |
| CC(C)Cc1ccc(C(C)C(=O)O)cc1 (stereo not shown) [Ibuprofen, ibuprofen] | 40 |  |
| COc1cc2nc(N3CCN(C(=O)c4ccco4)CC3)nc(N)c2cc1OC [Prazosin, prazosin-HCl] | 38 |  |
| C[C@@H](CO)NC(=O)[C@@H]1C=C2c3cccc4[nH]cc(c34)C[C@H]2N(C)C1 [Ergonovine, ergonovine] |  | Papp at 50 µM (in vitro; PAMPA): 25 ×10⁻⁶ cm/s |
| CCCCN1CCN(c2cc3c(cc2F)c(=O)c(C(=O)O)cn3C2CC2)CC1C (stereo not shown) [4′N-Bu-3′-Me-ciprofloxacin] |  | Pu (boundary layer permeability) (in vitro; [3]): 23 |
| CN1C(C(=O)Nc2ccccn2)=C(O)c2ccccc2S1(=O)=O [Piroxicam, piroxicam] | 31 |  |
| C[C@]12CC[C@H]3[C@@H](CCC4=CC(=O)CC[C@@]43C)[C@@H]1CC[C@@H]2O [testosterone] |  | Daq (Caco-2 type cells): 5e-06 cm/s; Daq [1]: 7.84e-06 cm/s |
